Here are results for 2 compounds from ChEMBL document CHEMBL4630901 (2021).

Holding throughout (details): Compound concentration 10.0 uM
The target in test [1] is Kappa-type opioid receptor (Homo sapiens) (UniProt P41145).
In test [2] the target is 5-hydroxytryptamine receptor 2B (Homo sapiens) (UniProt P41595).
Test [3] deals with T1, Muscarinic acetylcholine receptor M1 (Homo sapiens) (UniProt P11229).
T1 sequence (whole entry): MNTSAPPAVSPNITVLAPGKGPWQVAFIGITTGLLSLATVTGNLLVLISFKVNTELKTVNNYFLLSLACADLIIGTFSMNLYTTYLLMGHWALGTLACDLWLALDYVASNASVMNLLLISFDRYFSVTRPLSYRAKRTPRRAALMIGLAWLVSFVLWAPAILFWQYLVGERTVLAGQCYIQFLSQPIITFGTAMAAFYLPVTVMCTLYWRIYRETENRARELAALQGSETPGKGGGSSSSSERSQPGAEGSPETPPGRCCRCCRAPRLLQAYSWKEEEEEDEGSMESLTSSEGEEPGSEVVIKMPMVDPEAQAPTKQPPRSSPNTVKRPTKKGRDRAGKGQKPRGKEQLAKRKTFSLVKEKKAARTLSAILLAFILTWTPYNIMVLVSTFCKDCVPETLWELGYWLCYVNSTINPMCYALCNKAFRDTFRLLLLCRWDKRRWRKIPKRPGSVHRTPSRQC

The target in test [4] is Alpha-1B adrenergic receptor (Homo sapiens) (UniProt P35368).
Sequence of Alpha-1B adrenergic receptor (Homo sapiens) (P35368 whole entry): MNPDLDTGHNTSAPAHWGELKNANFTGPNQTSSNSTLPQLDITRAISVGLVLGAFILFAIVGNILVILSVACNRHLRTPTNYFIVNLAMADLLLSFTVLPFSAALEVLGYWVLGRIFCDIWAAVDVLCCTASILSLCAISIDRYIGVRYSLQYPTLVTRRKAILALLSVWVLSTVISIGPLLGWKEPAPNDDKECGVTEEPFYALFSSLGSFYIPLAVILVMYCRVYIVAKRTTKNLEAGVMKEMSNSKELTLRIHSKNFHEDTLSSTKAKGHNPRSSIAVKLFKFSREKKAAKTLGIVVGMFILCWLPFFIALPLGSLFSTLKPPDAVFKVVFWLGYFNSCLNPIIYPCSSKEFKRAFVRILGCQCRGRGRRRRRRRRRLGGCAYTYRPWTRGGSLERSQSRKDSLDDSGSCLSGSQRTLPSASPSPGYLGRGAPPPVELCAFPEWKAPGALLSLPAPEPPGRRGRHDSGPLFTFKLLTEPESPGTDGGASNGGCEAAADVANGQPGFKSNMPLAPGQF
The target in test [5] is T2, Muscarinic acetylcholine receptor M4 (Homo sapiens) (UniProt P08173).
T2 sequence (whole entry): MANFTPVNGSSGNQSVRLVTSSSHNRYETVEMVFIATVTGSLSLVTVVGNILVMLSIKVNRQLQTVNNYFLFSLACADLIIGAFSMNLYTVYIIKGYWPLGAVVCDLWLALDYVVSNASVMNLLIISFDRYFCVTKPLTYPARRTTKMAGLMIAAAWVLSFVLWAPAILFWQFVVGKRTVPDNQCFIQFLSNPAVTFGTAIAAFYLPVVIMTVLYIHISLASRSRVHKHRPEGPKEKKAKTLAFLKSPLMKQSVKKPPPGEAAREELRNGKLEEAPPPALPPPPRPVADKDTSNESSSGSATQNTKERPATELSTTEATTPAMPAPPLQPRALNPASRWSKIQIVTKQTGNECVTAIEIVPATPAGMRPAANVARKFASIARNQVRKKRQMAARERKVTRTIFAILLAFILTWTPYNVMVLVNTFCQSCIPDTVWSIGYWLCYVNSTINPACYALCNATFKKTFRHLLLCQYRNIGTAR

In test [6] the target is Histamine H2 receptor (Homo sapiens) (UniProt P25021).
Sequence of Histamine H2 receptor (Homo sapiens) (P25021 whole entry): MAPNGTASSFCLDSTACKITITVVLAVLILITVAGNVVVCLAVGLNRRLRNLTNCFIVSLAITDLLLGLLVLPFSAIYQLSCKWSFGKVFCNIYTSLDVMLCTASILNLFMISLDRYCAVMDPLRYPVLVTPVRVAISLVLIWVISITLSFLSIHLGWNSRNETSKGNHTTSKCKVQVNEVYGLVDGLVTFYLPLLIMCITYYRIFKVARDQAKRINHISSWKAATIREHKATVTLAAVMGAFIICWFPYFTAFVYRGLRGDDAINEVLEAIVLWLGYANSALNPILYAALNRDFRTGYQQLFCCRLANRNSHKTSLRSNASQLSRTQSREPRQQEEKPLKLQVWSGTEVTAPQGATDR
The target in test [7] is T3, Alpha-2A adrenergic receptor (Homo sapiens) (UniProt P08913).
T3 sequence (whole entry): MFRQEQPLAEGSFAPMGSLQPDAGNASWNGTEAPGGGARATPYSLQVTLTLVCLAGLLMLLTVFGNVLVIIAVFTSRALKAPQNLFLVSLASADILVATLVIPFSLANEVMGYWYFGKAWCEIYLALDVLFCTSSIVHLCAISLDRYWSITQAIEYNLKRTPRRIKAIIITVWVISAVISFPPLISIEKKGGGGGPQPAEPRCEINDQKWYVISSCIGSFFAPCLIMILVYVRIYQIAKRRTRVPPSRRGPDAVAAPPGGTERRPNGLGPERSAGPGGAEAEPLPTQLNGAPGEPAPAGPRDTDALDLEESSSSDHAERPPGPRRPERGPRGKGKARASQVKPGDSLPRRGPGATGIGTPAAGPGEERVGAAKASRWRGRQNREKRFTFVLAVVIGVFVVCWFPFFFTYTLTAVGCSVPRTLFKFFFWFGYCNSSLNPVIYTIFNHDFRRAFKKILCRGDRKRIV

Test [8] has as its target D(4) dopamine receptor (Homo sapiens) (UniProt P21917).
In test [9] the target is Muscarinic acetylcholine receptor M3 (Homo sapiens) (UniProt P20309).
Test [10] addresses GABA-A receptor; anion channel (Rattus norvegicus) (UniProt O09028+P15431+P18506+P18508+P19969+P20236+P23574+P23576+P28471+P28473+P30191+P62813+P63079+P63138+Q91ZM7+Q9ES14).
The target of test [11] is Sodium-dependent serotonin transporter (Homo sapiens) (UniProt P31645).
Sequence of Sodium-dependent serotonin transporter (Homo sapiens) (P31645 whole entry, looked up): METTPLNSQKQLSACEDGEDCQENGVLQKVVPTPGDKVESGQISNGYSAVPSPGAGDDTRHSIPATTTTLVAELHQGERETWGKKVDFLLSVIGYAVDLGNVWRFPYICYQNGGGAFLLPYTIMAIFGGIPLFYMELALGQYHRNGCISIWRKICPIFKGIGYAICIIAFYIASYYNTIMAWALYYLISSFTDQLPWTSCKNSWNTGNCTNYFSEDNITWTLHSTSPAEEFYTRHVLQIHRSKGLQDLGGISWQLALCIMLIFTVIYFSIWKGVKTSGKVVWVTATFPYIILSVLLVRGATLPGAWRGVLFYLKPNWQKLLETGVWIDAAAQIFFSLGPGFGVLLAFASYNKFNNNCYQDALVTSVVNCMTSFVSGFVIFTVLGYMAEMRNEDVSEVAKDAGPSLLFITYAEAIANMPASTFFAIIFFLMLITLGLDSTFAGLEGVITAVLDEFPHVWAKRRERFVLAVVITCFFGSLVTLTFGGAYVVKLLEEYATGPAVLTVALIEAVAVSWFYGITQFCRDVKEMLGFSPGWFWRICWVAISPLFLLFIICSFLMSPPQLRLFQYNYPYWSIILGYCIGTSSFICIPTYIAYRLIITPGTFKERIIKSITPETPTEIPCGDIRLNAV
In test [12] the target is 5-hydroxytryptamine receptor 2A (Homo sapiens) (UniProt P28223).
Sequence of 5-hydroxytryptamine receptor 2A (Homo sapiens) (P28223 whole entry): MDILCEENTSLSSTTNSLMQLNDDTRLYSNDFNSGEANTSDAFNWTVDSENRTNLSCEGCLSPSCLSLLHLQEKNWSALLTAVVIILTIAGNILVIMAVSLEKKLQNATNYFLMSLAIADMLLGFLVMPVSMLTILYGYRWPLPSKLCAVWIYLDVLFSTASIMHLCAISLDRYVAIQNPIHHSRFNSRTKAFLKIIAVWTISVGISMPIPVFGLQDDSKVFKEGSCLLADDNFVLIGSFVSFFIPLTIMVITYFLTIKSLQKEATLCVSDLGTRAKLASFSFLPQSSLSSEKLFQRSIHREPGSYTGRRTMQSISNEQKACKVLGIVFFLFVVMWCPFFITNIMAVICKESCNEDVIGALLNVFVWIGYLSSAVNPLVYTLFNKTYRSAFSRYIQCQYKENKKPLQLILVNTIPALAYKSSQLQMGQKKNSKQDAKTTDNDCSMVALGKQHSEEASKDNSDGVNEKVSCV
Test [13] deals with Beta-2 adrenergic receptor (Homo sapiens) (UniProt P07550).
The target in test [14] is 5-hydroxytryptamine receptor 7 (Homo sapiens) (UniProt P34969).
Sequence of 5-hydroxytryptamine receptor 7 (Homo sapiens) (P34969 whole entry): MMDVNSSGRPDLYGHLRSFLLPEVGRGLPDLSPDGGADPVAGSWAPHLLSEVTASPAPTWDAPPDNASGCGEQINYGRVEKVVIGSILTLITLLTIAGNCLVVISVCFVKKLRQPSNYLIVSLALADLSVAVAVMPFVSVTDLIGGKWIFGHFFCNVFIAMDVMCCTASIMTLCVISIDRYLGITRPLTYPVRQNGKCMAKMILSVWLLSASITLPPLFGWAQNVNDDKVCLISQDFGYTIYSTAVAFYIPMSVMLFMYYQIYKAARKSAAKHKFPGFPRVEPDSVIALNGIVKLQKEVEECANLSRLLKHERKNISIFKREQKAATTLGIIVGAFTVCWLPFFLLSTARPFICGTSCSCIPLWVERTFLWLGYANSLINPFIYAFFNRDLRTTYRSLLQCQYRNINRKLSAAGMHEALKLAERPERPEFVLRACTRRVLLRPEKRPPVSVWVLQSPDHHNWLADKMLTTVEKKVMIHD
Test [15] deals with D(1B) dopamine receptor (Homo sapiens) (UniProt P21918).
Sequence of D(1B) dopamine receptor (Homo sapiens) (P21918 whole entry): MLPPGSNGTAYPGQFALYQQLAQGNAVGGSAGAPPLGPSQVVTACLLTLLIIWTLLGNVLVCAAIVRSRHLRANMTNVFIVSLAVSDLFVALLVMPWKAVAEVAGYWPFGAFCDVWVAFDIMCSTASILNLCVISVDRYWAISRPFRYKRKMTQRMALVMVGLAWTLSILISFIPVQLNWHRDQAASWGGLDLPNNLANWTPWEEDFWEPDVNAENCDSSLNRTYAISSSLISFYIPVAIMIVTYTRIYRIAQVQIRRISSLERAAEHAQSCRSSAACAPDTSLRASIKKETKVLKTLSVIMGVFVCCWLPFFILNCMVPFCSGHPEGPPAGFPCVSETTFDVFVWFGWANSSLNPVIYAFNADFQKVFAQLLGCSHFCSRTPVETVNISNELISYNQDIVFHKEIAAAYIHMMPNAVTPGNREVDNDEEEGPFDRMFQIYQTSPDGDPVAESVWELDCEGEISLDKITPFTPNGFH
In test [16] the target is T4, Muscarinic acetylcholine receptor M2 (Homo sapiens) (UniProt P08172).
T4 sequence (whole entry): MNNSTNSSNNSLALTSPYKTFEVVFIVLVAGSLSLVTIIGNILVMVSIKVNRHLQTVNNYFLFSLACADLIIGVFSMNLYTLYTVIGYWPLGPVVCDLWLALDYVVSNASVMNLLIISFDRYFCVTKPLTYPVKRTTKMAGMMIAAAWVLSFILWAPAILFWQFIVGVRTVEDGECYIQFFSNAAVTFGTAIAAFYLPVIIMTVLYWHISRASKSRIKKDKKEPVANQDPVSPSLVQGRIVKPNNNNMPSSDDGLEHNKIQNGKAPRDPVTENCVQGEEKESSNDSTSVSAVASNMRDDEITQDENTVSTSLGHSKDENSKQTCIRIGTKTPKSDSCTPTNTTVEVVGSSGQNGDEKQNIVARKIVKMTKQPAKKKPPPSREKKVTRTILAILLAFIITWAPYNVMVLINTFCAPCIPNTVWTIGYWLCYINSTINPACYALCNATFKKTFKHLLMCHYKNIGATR

Test [17] has as its target Beta-1 adrenergic receptor (Homo sapiens) (UniProt P08588).
In test [18] the target is Delta-type opioid receptor (Homo sapiens) (UniProt P41143).
The target of test [19] is Histamine H1 receptor (Homo sapiens) (UniProt P35367).
Sequence of Histamine H1 receptor (Homo sapiens) (P35367 whole entry): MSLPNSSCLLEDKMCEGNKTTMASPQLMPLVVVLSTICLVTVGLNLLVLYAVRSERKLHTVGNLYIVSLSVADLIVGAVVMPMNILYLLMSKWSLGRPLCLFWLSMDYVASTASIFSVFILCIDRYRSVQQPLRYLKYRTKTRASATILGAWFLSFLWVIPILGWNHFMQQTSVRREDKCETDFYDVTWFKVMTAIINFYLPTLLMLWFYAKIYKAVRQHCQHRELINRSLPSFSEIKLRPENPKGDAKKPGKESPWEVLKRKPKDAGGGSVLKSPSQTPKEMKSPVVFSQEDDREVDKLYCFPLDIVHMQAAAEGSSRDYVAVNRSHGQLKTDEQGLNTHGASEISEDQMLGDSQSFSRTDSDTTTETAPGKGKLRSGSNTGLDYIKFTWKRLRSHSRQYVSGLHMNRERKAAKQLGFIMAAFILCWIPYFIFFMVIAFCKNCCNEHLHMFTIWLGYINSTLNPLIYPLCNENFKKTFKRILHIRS

Molecules are shown by their SMILES.

Sequence of Kappa-type opioid receptor (Homo sapiens) (P41145 whole entry): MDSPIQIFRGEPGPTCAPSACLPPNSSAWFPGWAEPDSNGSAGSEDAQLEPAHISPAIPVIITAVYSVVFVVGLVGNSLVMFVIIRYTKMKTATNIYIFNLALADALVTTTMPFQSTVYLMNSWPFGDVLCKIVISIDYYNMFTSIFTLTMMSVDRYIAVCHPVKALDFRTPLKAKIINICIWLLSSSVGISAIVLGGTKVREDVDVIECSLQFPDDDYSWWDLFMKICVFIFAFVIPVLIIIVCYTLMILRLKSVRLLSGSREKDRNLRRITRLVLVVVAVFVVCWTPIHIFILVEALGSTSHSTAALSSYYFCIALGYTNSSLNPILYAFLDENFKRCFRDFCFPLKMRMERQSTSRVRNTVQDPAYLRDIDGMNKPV
Sequence of D(4) dopamine receptor (Homo sapiens) (P21917 whole entry): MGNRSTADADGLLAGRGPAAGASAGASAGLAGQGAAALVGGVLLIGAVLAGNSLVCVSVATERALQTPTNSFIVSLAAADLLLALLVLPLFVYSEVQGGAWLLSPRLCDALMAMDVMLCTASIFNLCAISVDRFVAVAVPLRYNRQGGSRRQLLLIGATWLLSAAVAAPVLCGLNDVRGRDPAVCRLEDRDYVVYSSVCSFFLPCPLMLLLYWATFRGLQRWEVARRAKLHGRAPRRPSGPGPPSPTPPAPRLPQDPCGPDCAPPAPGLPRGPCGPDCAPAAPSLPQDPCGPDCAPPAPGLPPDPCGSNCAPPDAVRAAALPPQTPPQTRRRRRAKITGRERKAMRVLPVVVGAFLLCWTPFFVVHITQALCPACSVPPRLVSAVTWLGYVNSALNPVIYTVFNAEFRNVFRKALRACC
Sequence of Beta-1 adrenergic receptor (Homo sapiens) (P08588 whole entry, looked up): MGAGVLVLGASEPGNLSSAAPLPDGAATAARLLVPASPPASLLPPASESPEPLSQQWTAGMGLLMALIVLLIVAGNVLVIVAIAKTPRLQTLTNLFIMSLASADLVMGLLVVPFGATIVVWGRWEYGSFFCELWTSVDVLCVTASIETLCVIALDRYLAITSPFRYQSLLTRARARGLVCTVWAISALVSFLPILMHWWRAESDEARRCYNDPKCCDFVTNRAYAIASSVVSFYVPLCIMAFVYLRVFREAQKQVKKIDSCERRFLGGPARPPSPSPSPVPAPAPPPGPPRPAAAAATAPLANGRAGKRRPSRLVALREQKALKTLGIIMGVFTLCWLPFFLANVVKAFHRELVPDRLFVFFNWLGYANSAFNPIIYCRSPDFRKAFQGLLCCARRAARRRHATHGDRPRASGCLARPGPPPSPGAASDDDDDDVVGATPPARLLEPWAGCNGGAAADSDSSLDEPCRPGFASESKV

In the case of `Cc1c(N2CCNCC2)nc2ccc(Br)cc2c1C(=O)NC[C@H](CCC(=O)O)c1ccccc1Cl` [BAY-403], the inhibition (commonly the change of the read-out against control, counted positive when it falls) was 17.7% in test [1]; 31% in [2]; 8.42% in test [3]; -2.31% in [4]; 16.2% in test [5]; -4.15% in [6]. For the same compound, the inhibition in [7] is 65%; in test [8], 5.89%; in [9], 13.7%; in [10], -0.16%; in test [11], 5.34%; in [12], 38%. In addition, the inhibition in test [13] is 18.4%; in test [14], 13%; in [15], 5.3%; in test [16] it was 13.8%; in test [17] it was 12.6%; in test [18], 36%. Moreover, the inhibition in test [19] is 17.5%.
Consider `Cc1c(N2CCCC2)nc2ccc(Br)cc2c1C(=O)NC[C@H](CCC(=O)O)c1ccccc1Cl` [BAY-6672], for which the inhibition in test [1] was 15.4%; in test [2] it was 5.5%; in test [3], 14.3%; in test [4], -4.96%; in test [5], 19.4%; in test [6], 23.3%. The inhibition in test [7] is -4.59%; in test [8], 1.48%; in test [9] it was -0.57%; in test [10], 8.16%; in test [11], -7.59%; in test [12], 5.24%. Further, the inhibition is 19.9% in test [13]; 0.4% in [14]; 25% in test [15]; 14.6% in test [16]; 15.7% in [17]; 15.4% in test [18]. The inhibition in test [19] is 4.61%.
